Source: patent publication US11053243B2 (Merck Sharp & Dohme Corp., priority 2009, dated 2021)

The molecules below were run on HCV genotype 1b replicon (assay: HCV replicon assay, genotype 1b). Details: Hepatitis C virus; genotype 1b replicon cells, 24 to 72 hours incubation, luciferase activity.
Assay type: cell-based, hepatitis C virus
Protocol: The HCV replicons and NS5A inhibitory activity of the present compounds may be tested using assays known in the art. HCV inhibitors, such as those described in the Examples herein have activities in genotype 1b, 2a and 1a replicon assays of from about 1 pM to about 1 μM. The assay is performed by incubating a replicon harboring cell-line in the presence of inhibitor for a set period of time and measuring the effect of the inhibitor on HCV replicon replication either directly by quantifying replicon RNA level, or indirectly by measuring enzymatic activity of a co-encoded reporter enzyme such as luciferase or β-lactamase. By performing a series of such measurements at different inhibitor concentrations, the effective inhibitory concentration of the inhibitor (EC50 or EC90) is determined. See Jan M. Vrolijk et al., A replicons-based bioassay for the measurement of interferons in patients with chronic hepatitis C, 110 J. VIROLOGICAL METHODS 201 (2003). Such assays may also be run in an automated format for high through-put screening. See Paul Zuck et al., A cell-based β-lactamase reporter gene assay for the identification of inhibitors of hepatitis C virus replication, 334 ANALYTICAL BIOCHEMISTRY 344 (2004).
Measurement of inhibition by compounds was performed using the HCV replicon system. Several different replicons encoding different HCV genotypes or mutations were used. In addition, potency measurements were made using different formats of the replicon assay, including different ways of measurements and different plating formats. See Jan M. Vrolijk et al., A replicons-based bioassay for the measurement of interferons in patients with chronic hepatitis C, 110 J. VIROLOGICAL METHODS 201 (2003); Steven S. Carroll et al., Inhibition of Hepatitis C Virus RNA Replication by 2′-Modified Nucleoside Analogs, 278(14) J. BIOLOGICAL CHEMISTRY 11979 (2003). However, the underlying principles are common to all of these determinations, and are outlined below.
Stable neomycin phosphotransferase encoding replicon-harboring cell lines were used, so all cell lines were maintained under G418 selection prior to the assay. In some cases, the cell lines encoded a luciferase:Neor fusion and could be assayed either directly by determination of RNA copy number, or indirectly through measurement of the luciferase activity.
To initiate an assay, replicon cells were plated in the presence of a dilution series of test compound in the absence of G418. Typically, the assays were performed in a 96-well plate format for manual operation, or a 384-well plate in an automated assay. Replicon cells and compound were incubated for 24 to 72 hours. At the end of the assay, cells are washed free of media and compound and then lysed. Luciferase activity was measured using a conventional luciferase assay. EC50 determinations were calculated as a percent of a DMSO control by fitting the data to a four parameter fit function.
The activity table below provides representative data illustrating observed activity against genotype 1b.

Going from CC(C)(C)OC(=O)N[C@@H](C(=O)N1CCC[C@H]1C(=O)Nc1ccc2[nH]c(-c3ccc(-c4cnc([C@@H]5CCCN5C(=O)[C@H](NC(=O)OC(C)(C)C)c5ccccc5)[nH]4)cc3)cc2c1)c1ccccc1 [Example 99, tert-butyl {(1R)-2-[(2S)-2-(5-{4-[5-({[(2S)-1-{(2R)-2-[(tert-butoxycarbonyl)amino]-2-phenylacetyl}pyrrolidin-2-yl]carbonyl}amino)-1H-indol-2-yl]phenyl}-1H-imidazol-2-yl)pyrrolidin-1-yl]-2-oxo-1-phenylethyl}carbamate] to CC(C)(C)OC(=O)N[C@@H](C(=O)N1CCC[C@H]1C(=O)Nc1ccc2[nH]c(-c3ccc4[nH]c([C@@H]5CCCN5C(=O)[C@H](NC(=O)OC(C)(C)C)c5ccccc5)nc4c3)cc2c1)c1ccccc1 [Example 125, tert-butyl [(1R)-2-{(2S)-2-[(2-{2-[(2S)-1-{(2R)-2-[(tert-butoxycarbonyl)amino]-2-phenylacetyl}pyrrolidin-2-yl]-1H-benzimidazol-5-yl}-1H-indol-5-yl)carbamoyl]pyrrolidin-1-yl}-2-oxo-1-phenylethyl]carbamate], the EC50 falls from 0.038 nM to 0.016 nM (2.4-fold).

CC(C)(C)OC(=O)N[C@@H](C(=O)N1CCC[C@H]1C(=O)Nc1ccc2[nH]c(-c3ccc(-c4cnc([C@@H]5CCCN5C(=O)OCc5ccccc5)[nH]4)cc3)cc2c1)c1ccccc1 [Example 100, benzyl (2S)-2-[5-(4-{5-[(1-{(2R)-2-[(tert-butoxycarbonyl)amino]-2-phenylacetyl}-L-prolyl)amino]-1H-indol-2-yl}phenyl)-1H-imidazol-2-yl]pyrrolidine-1-carboxylate] and CN(C)[C@@H](C(=O)N1CCC[C@H]1c1ncc(-c2ccc(-c3cc4cc(NC(=O)[C@@H]5CCCN5C(=O)[C@H](NC(=O)OC(C)(C)C)c5ccccc5)ccc4[nH]3)cc2)[nH]1)c1ccccc1 [Example 107, tert-butyl {(1R)-2-[(2S)-2-({2-[4-(2-{(2S)-1-[(2R)-2-(dimethylamino)-2-phenylacetyl]pyrrolidin-2-yl}-1H-imidazol-5-yl)phenyl]-1H-indol-5-yl}carbamoyl)pyrrolidin-1-yl]-2-oxo-1-phenylethyl}carbamate] are within 1.5-fold of each other in EC50: 0.031 nM for the first, 0.04 nM for the second.

Compared with CN(C)[C@@H](C(=O)N1CCC[C@H]1C(=O)Nc1ccc2[nH]c(-c3ccc(-c4cnc([C@@H]5CCCN5C(=O)[C@@H](c5ccccc5)N(C)C)[nH]4)cc3)cc2c1)c1ccccc1 [Example 101, 1-[(2R)-2-(dimethylamino)-2-phenylacetyl]-N-{2-[4-(2-{(2S)-1-[(2R)-2-(dimethylamino)-2-phenylacetyl]pyrrolidin-2-yl}-1H-imidazol-5-yl)phenyl]-1H-indol-5-yl}-L-prolinamide], CN(C)[C@H](C(=O)N1CCC[C@H]1C(=O)Nc1ccc2[nH]c(-c3ccc(-c4cnc([C@@H]5CCCN5C(=O)[C@H](c5ccccc5)N(C)C)[nH]4)cc3)cc2c1)c1ccccc1 [Example 103, 1-[(2S)-2-(dimethylamino)-2-phenylacetyl]-N-{2-[4-(2-{(2S)-1-[(2S)-2-(dimethylamino)-2-phenylacetyl]pyrrolidin-2-yl}-1H-imidazol-5-yl)phenyl]-1H-indol-5-yl}-L-prolinamide] is 11-fold higher in EC50: 0.5 nM for the first, 5.7 nM for the second.

First: CC(C)(C)OC(=O)N[C@@H](C(=O)N1CCC[C@H]1C(=O)Nc1ccc2[nH]c(-c3ccc(-c4c[nH]cn4)cc3)cc2c1)c1ccccc1 [Example 102, tert-butyl {(1R)-2-[(2S)-2-({2-[4-(1H-imidazol-4-yl)phenyl]-1H-indol-5-yl}carbamoyl)pyrrolidin-1-yl]-2-oxo-1-phenylethyl}carbamate]
Second: CC(=O)N1CCC[C@H]1c1ncc(-c2ccc(-c3cc4cc(NC(=O)[C@@H]5CCCN5C(=O)[C@H](NC(=O)OC(C)(C)C)c5ccccc5)ccc4[nH]3)cc2)[nH]1 [Example 105, tert-butyl{(1R)-2-[(2S)-2-{[2-(4-{2-[(2S)-1-acetylpyrrolidin-2-yl]-1H-imidazol-5-yl}phenyl)-1H-indol-5-yl]carbamoyl}pyrrolidin-1-yl]-2-oxo-1-phenylethyl}carbamate]
The EC50 of the first is 100-fold higher: 8.3 nM for the first, 0.08 nM for the second.

First: COC(=O)N[C@H](C(=O)N1CCC[C@H]1C(=O)Nc1ccc2[nH]c(-c3ccc(-c4cnc([C@@H]5CCCN5C(=O)[C@@H](NC(=O)OC)C(C)C)[nH]4)cc3)cc2c1)C(C)C [Example 116, N-(methoxycarbonyl)-L-valyl-N-{2-[4-(2-{(2S)-1-[N-(methoxycarbonyl)-L-valyl]pyrrolidin-2-yl}-1H-imidazol-5-yl)phenyl]-1H-indol-5-yl}-L-prolinamide]
Second: CC(C)OC(=O)N[C@@H](C(=O)N1CCC[C@H]1C(=O)Nc1ccc2[nH]c(-c3ccc(-c4ncc([C@@H]5CCCN5C(=O)[C@H](NC(=O)OC(C)C)c5ccccc5)[nH]4)cc3)cc2c1)c1ccccc1 [Example 119, propan-2-yl [(1R)-2-oxo-1-phenyl-2-{(2S)-2-[2-(4-{5-[({(2S)-1-[(2R)-2-phenyl-2-{[(propan-2-yloxy)carbonyl]amino}acetyl]pyrrolidin-2-yl}carbonyl)amino]-1H-indol-2-yl}phenyl)-1H-imidazol-5-yl]pyrrolidin-1-yl}ethyl]carbamate]
The EC50 of the first is 5-fold higher: 0.065 nM for the first, 0.013 nM for the second. The second is the more potent here.

O=C(Nc1ccc(-c2[nH]c3ccc(NC(=O)[C@@H]4CCCN4C(=O)Cc4ccccc4)cc3c2F)cc1)[C@@H]1CCCN1C(=O)Cc1ccccc1 [Example 129, (2S)-N-{4-[3-fluoro-5-({[(2S)-1-(phenylacetyl)pyrrolidin-2-yl]carbonyl}amino)-1H-indol-2-yl]phenyl}-1-(phenylacetyl) pyrrolidine-2-carboxamide] and N#Cc1c(-c2ccc(NC(=O)[C@@H]3CCCN3C(=O)Cc3ccccc3)cc2)[nH]c2ccc(NC(=O)[C@@H]3CCCN3C(=O)Cc3ccccc3)cc12 [Example 155, (2S)—N-{4-[3-cyano-5-({[(2S)-1-(phenylacetyl)pyrrolidin-2-yl]carbonyl}amino)-1H-indol-2-yl]phenyl}-1-(phenylacetyl)pyrrolidine-2-carboxamide] are within 1.5-fold of each other in EC50: 0.7 nM for the first, 0.9 nM for the second.

Compared with CC(C)(C)OC(=O)N[C@H](C(=O)N1CCC[C@H]1C(=O)Nc1ccc(-c2[nH]c3ccc(NC(=O)[C@@H]4CCCN4C(=O)[C@@H](NC(=O)OC(C)(C)C)c4ccccc4)cc3c2F)cc1)c1ccccc1 [Example 130, tert-butyl {(1S)-2-[(2S)-2-({4-[5-({[(2S)-1-{(2S)-2-[(tert-butoxycarbonyl)amino]-2-phenylacetyl}pyrrolidin-2-yl]carbonyl}amino)-3-fluoro-1H-indol-2-yl]phenyl}carbamoyl)pyrrolidin-1-yl]-2-oxo-1-phenylethyl}carbamate], CC(=O)N1CCC[C@H]1C(=O)Nc1ccc(-c2[nH]c3ccc(NC(=O)[C@@H]4CCCN4C(=O)[C@H](NC(=O)OC(C)(C)C)c4ccccc4)cc3c2F)cc1 [Example 137, tert-butyl {(1R)-2-[(2S)-2-({2-[4-({[(2S)-1-acetylpyrrolidin-2-yl]carbonyl}amino)phenyl]-3-fluoro-1H-indol-5-yl}carbamoyl)pyrrolidin-1-yl]-2-oxo-1-phenylethyl}carbamate] is 5.6-fold lower in EC50: 0.05 nM for the first, 0.009 nM for the second.

First: CC(=O)Nc1ccc(-c2[nH]c3ccc(NC(=O)[C@@H]4CCCN4C(=O)[C@@H](NC(=O)OC(C)(C)C)c4ccccc4)cc3c2Cl)cc1 [Example 131, tert-butyl {(1S)-2-[(2S)-2-({2-[4-(acetylamino)phenyl]-3-chloro-1H-indol-5-yl}carbamoyl)pyrrolidin-1-yl]-2-oxo-1-phenylethyl}carbamate]
Second: CC(C)(C)OC(=O)N[C@@H](C(=O)N1CCC[C@H]1C(=O)Nc1ccc2[nH]c(-c3ccc(N4CCCC4=O)cc3)c(F)c2c1)c1ccccc1 [Example 138, tert-butyl {(1R)-2-[(2S)-2-({3-fluoro-2-[4-(2-oxopyrrolidin-1-yl)phenyl]-1H-indol-5-yl}carbamoyl)pyrrolidin-1-yl]-2-oxo-1-phenylethyl}carbamate]
The EC50 of the first is 2-fold higher: 17 nM for the first, 8.5 nM for the second. The second is the more potent here.

Work on CC(C)OC(=O)N[C@@H](C(=O)N1CCC[C@H]1C(=O)Nc1ccc(-c2[nH]c3ccc(NC(=O)[C@@H]4CCCN4C(=O)OC(C)(C)C)cc3c2F)cc1)c1ccccc1 [Example 144, tert-butyl (2S)-2-[(3-fluoro-2-{4-[({(2S)-1-[(2R)-2-phenyl-2-{[(propan-2-yloxy)carbonyl]amino}acetyl]pyrrolidin-2-yl}carbonyl)amino]phenyl}-1H-indol-5-yl)carbamoyl] pyrrolidine-1-carboxylate] yielded an EC50 of 0.036 nM.
